≈ marks a conversion by molar mass, not a printed value.
How the values were obtained:
[1] = test system: Streptococcus faecalis ATCC 10541; experiment: MIC in vitro; format: cell-based; settings: Enterococcus faecalis, ATCC10541, Dextrose agar, 37° C., 20 hours
Text: (§1) (G. L. Daquet and Y. A. Chabbect, Techniques en bacteriologie (Bacteriological techniques), vol. 3, Flammarion Medecine Sciences, Paris, 1972 and W. B. Hugo and A. D. Rusell, Pharmaceutical Microbiology, Blackwell Scientific Publications, London, (1977)). Antibiotic medium no. 1 (seed agar) (Oxoid CM 327) Tryptone-soya broth (Oxoid CM 129) Ringer's physiological solution 1/4 (oxoid BR 52) Dextrose agar (BBL-11165) 0.1 N NaOH "Streptococcus faecalis" ATCC 10541 Each of the microorganisms is seeded by streaking in tubes of Antibiotic medium No. 1 (seed agar), which are then incubated at 37° C. for 20 hours. Using a culture loop, the cultures are then seeded in tryptone-soyabroth and incubated at 37° C. for 20 hours. The culture obtained is diluted to 1/4 with Ringer's physiological solution, so as to obtain a standardized suspension of 10^7 -10^9 cfu/ml for each organism. Starting from a solution of 1,000 μg/ml in 0.1 N NaOH, each product is diluted in Dextrose agar (previously melted and maintained at 50° C.), with successive dilutions so as to obtain the following concentrations: 64--32--16--8--4--2--1--0.5--0.25--0.125 μg of derivative/ml medium. For each product, the solution of each concentration is subsequently distributed into Petri dishes 10 cm in diameter, with 10 ml of medium per dish and the same number of dishes as microorganisms to be tested. As soon as the medium has cooled, the dishes are seeded with the inoculations using 0.4 ml of inoculation per dish. They are spread with a Driglasky loop and the supernatant is removed. The seeded dishes are incubated at 37° C. for 20 hours.

[2] = test system: Salmonella typhimurius AMES 100; experiment: MIC in vitro; format: cell-based, Salmonella typhimurium; settings: AMES100, Dextrose agar, 37° C., 20 hours
Protocol: (§2) (G. L. Daquet and Y. A. Chabbect, Techniques en bacteriologie (Bacteriological techniques), vol. 3, Flammarion Medecine Sciences, Paris, 1972 and W. B. Hugo and A. D. Rusell, Pharmaceutical Microbiology, Blackwell Scientific Publications, London, (1977)).
(§3) Antibiotic medium no. 1 (seed agar) (Oxoid CM 327)
(§4) Tryptone-soya broth (Oxoid CM 129)
(§5) Ringer's physiological solution 1/4 (oxoid BR 52) Dextrose agar (BBL-11165) 0.1 N NaOH
"Salmonella typhimurium" AMES 100
(§6) Each of the microorganisms is seeded by streaking in tubes of Antibiotic medium No. 1 (seed agar), which are then incubated at 37° C. for 20 hours. Using a culture loop, the cultures are then seeded in tryptone-soyabroth and incubated at 37° C. for 20 hours. The culture obtained is diluted to 1/4 with Ringer's physiological solution, so as to obtain a standardized suspension of 10^7 -10^9 cfu/ml for each organism.
(§7) Starting from a solution of 1,000 μg/ml in 0.1 N NaOH, each product is diluted in Dextrose agar (previously melted and maintained at 50° C.), with successive dilutions so as to obtain the following concentrations: 64--32--16--8--4--2--1--0.5--0.25--0.125 μg of derivative/ml medium.
(§8) For each product, the solution of each concentration is subsequently distributed into Petri dishes 10 cm in diameter, with 10 ml of medium per dish and the same number of dishes as microorganisms to be tested.
(§9) As soon as the medium has cooled, the dishes are seeded with the inoculations using 0.4 ml of inoculation per dish. They are spread with a Driglasky loop and the supernatant is removed. The seeded dishes are incubated at 37° C. for 20 hours.

[3] = test system: Pseudomonas aeroginosa ADSA 47; experiment: MIC in vitro; format: cell-based, Pseudomonas aeruginosa; settings: ADSA47, Dextrose agar, 37° C., 20 hours
Protocol: as §1, with “"Pseudomonas aeruginosa" ADSA 47” for “"Streptococcus faecalis" ATCC 10541”

[4] = test system: gram-positive cocci; experiment: in vitro antimicrobial activity compared to pipemidic acid; format: cell-based
Protocol: as §2, §3, §4, §5, §6, §7, §8, §9

[5] = test system: enterobacteriaceae (Pseudomonas aeruginosa); experiment: as above; format: cell-based
Protocol: as §2, §3, §4, §5, §6, §7, §8, §9

`CCn1cc(C(=O)O)c(=O)c2ccc(-n3cccc3)cc21` [Example 1, 7-(1-pyrrolyl)-1-ethyl-1,4-dihydro-4-oxo-3-quinolinecarboxylic acid] gave an MIC [1] of 16 µg/mL (≈ 56.7 µM), an MIC [2] of 4 µg/mL (≈ 14.2 µM) and an MIC [3] of over 64 µg/mL. The “"in vitro" activity compared to pipemidic acid” value [4] was “greater than that of pipemidic acid” and the “"in vitro" activity compared to pipemidic acid” value [5] was “greater than that of pipemidic acid”.
`CCn1cc(C(=O)O)c(=O)c2cc(F)c(-n3cccc3)nc21` [Example 4, 1-ethyl-1,4-dihydro-4-oxo-6-fluoro-7-(1-pyrrolyl)-1,8-naphthyridine-3-carboxylic acid] gave an MIC [1] of 8 µg/mL (≈ 26.6 µM), an MIC [2] of 0.5 µg/mL (≈ 1.66 µM) and an MIC [3] of over 64 µg/mL. For the same compound, the “"in vitro" activity compared to pipemidic acid” value [4] was “greater than that of pipemidic acid” and the “"in vitro" activity compared to pipemidic acid” value [5] was “greater than that of pipemidic acid”.
Compound `CCn1cc(C(=O)O)c(=O)c2cc(F)c(-n3cccc3)cc21` [Example 2, 6-fluoro-7-(1-pyrrolyl)-1-ethyl-1,4-dihydro-4-oxo-3-quinolinecarboxylic acid] has an MIC [1] of 1 µg/mL (≈ 3.33 µM), an MIC [2] of 0.5 µg/mL (≈ 1.67 µM) and an MIC [3] of 64 µg/mL (≈ 213 µM). For the same compound, the “"in vitro" activity compared to pipemidic acid” value [4] was “greater than that of pipemidic acid” and the “"in vitro" activity compared to pipemidic acid” value [5] was “greater than that of pipemidic acid”.
Work on `CCn1cc(C(=O)O)c(=O)c2ccc(-n3cccc3)nc21` [Example 3, 1-ethyl-1,4-dihydro-4-oxo-7-(1-pyrrolyl)-1,8-naphthyridine-3-carboxylic acid] yielded an MIC [1] of 32 µg/mL (≈ 113 µM), an MIC [2] of 8 µg/mL (≈ 28.2 µM) and an MIC [3] of over 64 µg/mL. For the same compound, the “"in vitro" activity compared to pipemidic acid” value [4] was “a greater activity”.
Work on `CCn1cc(C(=O)O)c(=O)c2cnc(N3CCNCC3)nc21` [Pipemidic acid, reference compound] yielded an MIC [1] of over 64 µg/mL, an MIC [2] of 8 µg/mL (≈ 26.4 µM) and an MIC [3] of 32 µg/mL (≈ 105 µM).

From US4552882A, “7-(1-Pyrrolyl) derivatives of 1-ethyl-1,4-dihydro-4-oxoquinoline-3-carboxylic acids and 1-ethyl-1,4-dihydro-4-oxo-1,8-naphthyridine-3-carboxylic acids and their use as antimicrobial agents” (Provesan, SA, priority 1983, dated 1985)
